Where two headings read alike, the source gives them in different places.
Experiments:
[1] = target: recombinant human NF-kappaB-inducing kinase (NIK/MAP3K14) (Homo sapiens, UniProt Q99558); test: Inhibition of auto-phosphorylation of recombinant human NIK/MAP3K14 activity (AlphaScreen); type: biochemical; settings: GST-tagged NIK/MAP3K14 1 nM, 5 μM ATP, 2 h at 25° C.; average of values obtained
Method: Inhibition of Auto-Phosphorylation of Recombinant Human NF-kappaB-Inducing Kinase (NIK/MAP3K14) Activity (AlphaScreen®)
NIK/MAP3K14 auto-phosphorylation activity was measured using the AlphaScreen® (αscreen) format (Perkin Elmer). All compounds tested were dissolved in dimethyl sulfoxide (DMSO) and further dilutions were made in assay buffer. The final DMSO concentration was 0.7% (v/v) in assays. The assay buffer was 50 mM Tris pH 7.5 containing 1 mM EGTA (ethylene glycol tetraacetic acid), 1 mM DTT (dithiothreitol), 0.1 mM Na3VO4, 5 mM MgCl2, and 0.01% Tween® 20. The assays were carried out in 384 well Proxiplates (Perkin Elmer). The incubations consisted of the compound, 5 μM Adenosine-5′-triphosphate (ATP), and 1 nM NIK/MAP3K14. Incubations were initiated by the addition of GST-tagged NIK/MAP3K14 enzyme, carried out for 2 h at 25° C. and terminated by addition of stop buffer containing anti-phospho-IKK Ser176/180 antibody. Protein A Acceptor and Glutathione-Donor beads were added before reading using an EnVision Multilabel Plate Reader (Perkin Elmer). The signal obtained in the wells was normalized using high (full enzyme activity, 0.7% DMSO) and low controls (no enzyme activity, 0.7% DMSO, no ATP). IC50's were determined by fitting a sigmoidal curve to % inhibition of control versus Log10 compound concentration.

[2] = system: p-IKKα levels in L363 (NIK translocated multiple myeloma) cells; test: Effect of compounds on p-IKKα levels in L363 cells (AlphaLISA SureFire Ultra); type: cell-based, human; settings: 10 μM MG132, 6 h, average of values obtained, read-out: Assay 2 IC50
Method: Effect of Compounds on p-IKKα Levels in L363 (NIK Translocated Multiple Myeloma) Cells
All compounds tested were dissolved and serially diluted in DMSO, 1:3 dilution for 11 points in an Echo compatible plate. 100% DMSO was added to columns 12 and 24 of the plate to serve as high and low signal controls. This compound plate was used to spot 20 nL of compound or DMSO into a Greiner 384 well TC plate (781080). The final DMSO concentration was 0.3% (v/v) in cell assays. Human L363 cells (ATCC) were cultured in RPMI1640 medium supplemented with GlutaMax, non-essential amino acids, sodium pyruvate and 10% fetal bovine serum. Cells were routinely maintained at densities of […]-2×10^6 cells per mL at 37° C. in a humidified 5% CO2 atmosphere incubator. Cells were passaged twice a week splitting back to obtain the low density. The day before the assay, cells were washed twice in HBSS (Hank's Balanced Salt Solution), resuspended in Dulbecco's Modified Eagle Medium (DMEM)+0.5% IgG and protease free BSA (Jackson Immuno Research Laboratories), +/−250 ng/ml recombinant human B-cell activating factor (BAFF/BLyS/TNFSF13B) and incubated overnight at 37° C. in a humidified 5% CO2 atmosphere (bulk stimulation with or without BAFF). The next day, the cell concentration was adjusted to 1×10^7 cells/ml in DMEM+/−250 ng/ml BAFF+/10 μM MG132 and plated at […] into compound or DMSO spotted 384 well TC plates. Seeded cells were incubated at 37° C. in a humidified 5% CO2 atmosphere for 6 h. After 6 h, the plates were removed from the incubator and cell lysis was achieved by the addition of 2.5 μl 5×lysis buffer containing protease and phosphatase inhibitors, followed by shaking on a plate shaker at room temperature for 15 min. At the end of this incubation, lysed cells were sequentially treated and incubated with acceptor and donor bead mixes according to the manufacturer's protocol for a 1 plate/2-incubation suspension cell assay (AlphaLISA SureFire Ultra p-IKKa (Ser 176/180) Assay Kit (Perkin Elmer). Plates were read using an EnVision Multilabel Plate Reader (Perkin Elmer). Within an experiment, a concentration response curve for each compound was run in duplicate. The signal obtained in the test wells was normalized using high signal (BAFF stimulated cells, DMSO, MG132) and low signal (unstimulated cells, DMSO) controls. To determine the IC50, a sigmoidal curve was fitted to the plot of % inhibition versus Log10 compound concentration.

[3] = Homo sapiens, L-363, 250 ng/ml BAFF stimulated
[4] = Homo sapiens, L-363, 6 h, 250 ng/ml BAFF stimulated

Chain of recombinant human NF-kappaB-inducing kinase (NIK/MAP3K14) (Q99558 whole entry): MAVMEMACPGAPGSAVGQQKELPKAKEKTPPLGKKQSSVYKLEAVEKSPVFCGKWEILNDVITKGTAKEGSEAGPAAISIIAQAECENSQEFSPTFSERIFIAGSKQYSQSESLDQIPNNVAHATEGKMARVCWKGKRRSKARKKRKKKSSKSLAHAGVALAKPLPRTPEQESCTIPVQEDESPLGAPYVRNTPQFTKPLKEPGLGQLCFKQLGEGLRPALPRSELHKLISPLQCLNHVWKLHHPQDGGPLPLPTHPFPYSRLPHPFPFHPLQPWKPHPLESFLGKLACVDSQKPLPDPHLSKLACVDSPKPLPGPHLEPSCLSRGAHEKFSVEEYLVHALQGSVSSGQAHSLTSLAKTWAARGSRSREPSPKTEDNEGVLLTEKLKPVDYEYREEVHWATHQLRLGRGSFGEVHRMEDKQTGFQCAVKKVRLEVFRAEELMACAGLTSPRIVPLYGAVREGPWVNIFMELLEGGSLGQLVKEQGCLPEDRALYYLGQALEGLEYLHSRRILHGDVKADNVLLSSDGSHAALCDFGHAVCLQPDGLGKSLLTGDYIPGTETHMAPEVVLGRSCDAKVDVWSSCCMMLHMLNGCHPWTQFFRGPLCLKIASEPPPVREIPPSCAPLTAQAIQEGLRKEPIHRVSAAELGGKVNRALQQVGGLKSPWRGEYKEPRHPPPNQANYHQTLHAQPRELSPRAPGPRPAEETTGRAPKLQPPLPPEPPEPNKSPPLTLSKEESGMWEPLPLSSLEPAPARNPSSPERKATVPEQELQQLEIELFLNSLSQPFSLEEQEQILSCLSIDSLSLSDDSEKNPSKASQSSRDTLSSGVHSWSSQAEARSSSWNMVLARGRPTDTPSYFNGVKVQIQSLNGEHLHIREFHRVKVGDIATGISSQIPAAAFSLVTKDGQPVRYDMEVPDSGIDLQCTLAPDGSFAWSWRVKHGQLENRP

## CN1CC[C@@](O)(c2cccc(-c3csc(-c4c[nH]c5ncc(Cl)c(F)c45)n3)c2)C1=O [Example 95, (R)-3-(3-(2-(5-Chloro-4-fluoro-1H-pyrrolo[2,3-b]pyridin-3-yl)thiazol-4-yl)phenyl)-3-hydroxy-1-methylpyrrolidin-2-one]
[1]
  IC50: ≤ 100 nM
[2]; [3]
  IC50: > 500 nM

## CN1CC[C@@](O)(c2cccc(-c3nc(-c4c(Cl)cnc5[nH]ccc45)cs3)c2)C1=O [Example 130, (R)-3-(3-(4-(5-Chloro-1H-pyrrolo[2,3-b]pyridin-4-yl)thiazol-2-yl)phenyl)-3-hydroxy-1-methylpyrrolidin-2-one]
[1]
  IC50: > 500 nM
[2]; [3]
  IC50: > 500 nM

## CN1CC[C@@](O)(c2cccc(-c3nc(-c4cc(N)nc5[nH]ccc45)cs3)c2)C1=O [Example 129, (R)-3-(3-(4-(6-Amino-1H-pyrrolo[2,3-b]pyridin-4-yl)thiazol-2-yl)phenyl)-3-hydroxy-1-methylpyrrolidin-2-one]
[1]
  IC50: > 500 nM
[2]; [3]
  IC50: > 500 nM

## CN1CC[C@@](O)(c2cccc(-c3nc(-c4c[nH]c5ncccc45)sc3CO)c2)C1=O [Example 50, (R)-3-Hydroxy-3-(3-(5-(hydroxymethyl)-2-(1H-pyrrolo[2,3-b]pyridin-3-yl)thiazol-4-yl)phenyl)-1-methylpyrrolidin-2-one]
[1]
  IC50: ≤ 100 nM
[2]; [3]
  IC50: > 500 nM

## O[C@@]1(c2cccc(-c3nc(-c4c[nH]c5ncccc45)cs3)c2)CCc2cccnc21 (single isomer, unassigned) [Example 22]
[1]
  IC50: ≤ 100 nM
[2]; [4]
  IC50: 100 to 500 nM

## CN1CC[C@@](O)(c2cccc(-c3cnc(-c4c[nH]c5ncccc45)s3)c2)C1=O (single isomer, unassigned) [Example 3]
[1]
  IC50: 100 to 500 nM
[2]; [3]
  IC50: > 500 nM

## [2H]c1cnc2[nH]cc(-c3nc(-c4cccc([C@]5(O)CCn6ccnc65)c4)cs3)c2n1 [Example 63, (R)-7-(3-(2-(5H-Pyrrolo[2,3-b]pyrazin-7-yl-2-d)thiazol-4-yl)phenyl)-6,7-dihydro-5H-pyrrolo[1,2-a] imidazol-7-ol]
[1]
  IC50: ≤ 100 nM
[2]; [4]
  IC50: ≤ 100 nM

## C[C@](O)(c1cccc(-c2csc(-c3c[nH]c4ncccc34)n2)c1)c1nccs1 (single isomer, unassigned) [Example 64]
[1]
  IC50: > 500 nM
[2]; [4]
  IC50: > 500 nM

## Cc1cnc2[nH]cc(-c3nc(-c4cccc([C@@]5(O)CCn6ccnc65)c4)cs3)c2n1 [Example 82, (S)-7-(3-(2-(2-Methyl-5H-pyrrolo[2,3-b]pyrazin-7-yl)thiazol-4-yl)phenyl)-6,7-dihydro-5H-pyrrolo[1,2-a]imidazol-7-ol]
[1]
  IC50: 100 to 500 nM
[2]; [4]
  IC50: > 500 nM

## O[C@@]1(c2cccc(-c3csc(-c4c[nH]c5ncccc45)n3)c2)COc2cccnc21 [Example 16, (R)-3-(3-(2-(1H-Pyrrolo[2,3-b]pyridin-3-yl)thiazol-4-yl)phenyl)-2,3-dihydrofuro[3,2-b]pyridin-3-ol]
[1]
  IC50: ≤ 100 nM
[2]; 250 ng/ml BAFF stimulated
  IC50: 100 to 500 nM

## CN1CC[C@@](O)(c2cccc(-c3coc(-c4c[nH]c5ncccc45)n3)c2)C1=O [Example 116, (R)-3-(3-(2-(1H-Pyrrolo[2,3-b]pyridin-3-yl)oxazol-4-yl)phenyl)-3-hydroxy-1-methylpyrrolidin-2-one]
[1]
  IC50: ≤ 100 nM
[2]; [3]
  IC50: > 500 nM

## O[C@]1(c2cccc(-c3csc(-c4c[nH]c5ncncc45)n3)c2)CCc2cccnc21 (single isomer, unassigned) [Example 6]
[1]
  IC50: 100 to 500 nM
[2]; [4]
  IC50: > 500 nM

## CN1CC[C@@](O)(c2cccc(-c3nc(-c4c[nH]c5ncccc45)sc3C#N)c2)C1=O [Example 98, (R)-4-(3-(3-Hydroxy-1-methyl-2-oxopyrrolidin-3-yl)phenyl)-2-(1H-pyrrolo[2,3-b]pyridin-3-yl)thiazole-5-carbonitrile]
[1]
  IC50: > 500 nM
[2]; [3]
  IC50: > 500 nM

## O[C@]1(c2cccc(-c3nc(-c4c[nH]c5ncccc45)cs3)c2)CCc2cccnc21 (single isomer, unassigned) [Example 23]
[1]
  IC50: 100 to 500 nM
[2]; [4]
  IC50: > 500 nM

## CN1CC[C@@](O)(c2cccc(-c3ccc(-c4c[nH]c5ncccc45)o3)c2)C1=O [Example 114, (R)-3-(3-(5-(1H-Pyrrolo[2,3-b]pyridin-3-yl)furan-2-yl)phenyl)-3-hydroxy-1-methylpyrrolidin-2-one]
[1]
  IC50: ≤ 100 nM
[2]; [3]
  IC50: 100 to 500 nM

## CN1CC[C@@](O)(c2cccc(-n3cnc(-c4c[nH]c5ncccc45)c3)c2)C1=O (single isomer, unassigned) [Example 124]
[1]
  IC50: > 500 nM
[2]; [3]
  IC50: > 500 nM

## CN1CC[C@@](O)(c2cccc(-c3nc(-c4c[nH]c5ncccc45)cs3)c2)C1=O [Example 8, (R)-3-(3-(4-(1H-Pyrrolo[2,3-b]pyridin-3-yl)thiazol-2-yl)phenyl)-3-hydroxy-1-methylpyrrolidin-2-one]
[1]
  IC50: ≤ 100 nM
[2]; [3]
  IC50: > 500 nM

## O[C@@]1(c2cccc(-c3csc(-c4c[nH]c5nccc(F)c45)n3)c2)CCn2ccnc21 [Example 29, (R)-7-(3-(2-(4-Fluoro-1H-pyrrolo[2,3-b]pyridin-3-yl)thiazol-4-yl)phenyl)-6,7-dihydro-5H-pyrrolo[1,2-a]imidazol-7-ol]
[1]
  IC50: ≤ 100 nM
[2]; [4]
  IC50: ≤ 100 nM

## CN1CC[C@@](O)(c2cccc(-c3cc(-c4c[nH]c5ncccc45)[nH]n3)c2)C1=O [Example 117, (R)-3-(3-(5-(1H-Pyrrolo[2,3-b]pyridin-3-yl)-1H-pyrazol-3-yl)phenyl)-3-hydroxy-1-methylpyrrolidin-2-one]
[1]
  IC50: 100 to 500 nM
[2]; [3]
  IC50: > 500 nM

## C[C@]1(O)C[C@@](O)(c2cccc(-c3csc(-c4c[nH]c5ncccc45)n3)c2)c2ncccc21 (single isomer, unassigned) [Example 108]
[1]
  IC50: 100 to 500 nM
[2]; [4]
  IC50: > 500 nM

## O[C@@]1(c2cccc(-c3csc(-c4c[nH]c5ncccc45)n3)c2)COc2cccnc21 [Example 85, (R)-3-(3-(2-(1H-Pyrrolo[2,3-b]pyridin-3-yl)thiazol-4-yl)phenyl)-2,3-dihydrofuro[3,2-b]pyridin-3-ol]
[1]
  IC50: > 500 nM
[2]; 250 ng/ml BAFF stimulated
  IC50: > 500 nM

## CN1CC[C@@](O)(c2cccc(-c3csc(-c4c[nH]c5ncc(F)c(F)c45)n3)c2)C1=O [Example 94, (R)-3-(3-(2-(4,5-Difluoro-1H-pyrrolo[2,3-b]pyridin-3-yl)thiazol-4-yl)phenyl)-3-hydroxy-1-methylpyrrolidin-2-one]
[1]
  IC50: ≤ 100 nM
[2]; [3]
  IC50: > 500 nM

## Cc1ccc(-c2csc(-c3c[nH]c4nccnc34)n2)cc1[C@@]1(O)CCN(C)C1=O [Example 70, (S)-3-(5-(2-(5H-Pyrrolo[2,3-b]pyrazin-7-yl)thiazol-4-yl)-2-methylphenyl)-3-hydroxy-1-methylpyrrolidin-2-one]
[1]
  IC50: > 500 nM
[2]; [3]
  IC50: > 500 nM

## CN1CC[C@@](O)(c2cccc(-c3ncc(-c4c[nH]c5ncccc45)s3)c2)C1=O [Example 9, (R)-3-(3-(5-(1H-Pyrrolo[2,3-b]pyridin-3-yl)thiazol-2-yl)phenyl)-3-hydroxy-1-methylpyrrolidin-2-one]
[1]
  IC50: 100 to 500 nM
[2]; [3]
  IC50: > 500 nM

## CN1CC[C@@](O)(c2cccc(-c3nc(-c4ccnc5[nH]ccc45)cs3)c2)C1=O [Example 127, (R)-3-(3-(4-(1H-Pyrrolo[2,3-b]pyridin-4-yl)thiazol-2-yl)phenyl)-3-hydroxy-1-methylpyrrolidin-2-one]
[1]
  IC50: ≤ 100 nM
[2]; [3]
  IC50: > 500 nM
